Test results published in ChEMBL document CHEMBL1201862, “PubChem BioAssay data set” (2004).
Values joined by “and” are separate entries in the source; they are usually repeats but may differ in a detail not shown here. Equal values may be shown once.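 Cultured in 96-well plates, cells were exposed to test compound for 48 hours across five concentrations. GI50 is the concentration that inhibits growth by half.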 Active and inactive are the calls of the source. No stated cut-off is given here; in the data, active = GI50 up to about 1.1 µM and inactive = higher.

Columns and labels:
Experiment in all cases: inhibition of tumour cell growth, NCI panel, 48 h
M14 = tested on: M14
OVCAR-4 = tested on: OVCAR-4
SN12C = tested on: SN12C
A498 = tested on: A498
KM12 = tested on: KM12
Hs-578T = tested on: Hs-578T
MDA-MB-231 = tested on: MDA-MB-231
SF-295 = tested on: SF-295
DU-145 = tested on: DU-145
NCI-H23 = tested on: NCI-H23
UACC-62 = tested on: UACC-62
NCI-H522 = tested on: NCI-H522
HT-29 = tested on: HT-29
HCC 2998 = tested on: HCC 2998
CAKI-1 = tested on: CAKI-1
SK-MEL-5 = tested on: SK-MEL-5

Row | Structure (SMILES) | GI50 (M14) | GI50 (OVCAR-4) | GI50 (SN12C) | GI50 (A498) | GI50 (KM12) | GI50 (Hs-578T) | GI50 (MDA-MB-231) | GI50 (SF-295) | GI50 (DU-145) | GI50 (NCI-H23) | GI50 (UACC-62) | GI50 (NCI-H522) | GI50 (HT-29) | GI50 (HCC 2998) | GI50 (CAKI-1) | GI50 (SK-MEL-5)
1 | CCOC(=O)NC(C(F)(F)F)(C(F)(F)F)P(=O)(OCC)OCC | 25.9 µM (inactive) | 18.7 µM (inactive) | 32.8 µM (inactive) | 46.3 µM (inactive) | 43.9 µM (inactive) | 16.9 µM (inactive) | > 100 µM (inactive) | 51.2 µM (inactive) | > 100 µM (inactive) | 34.5 µM (inactive) | 28 µM (inactive) | 17.4 µM (inactive) | 27.5 µM (inactive) | 75.2 µM (inactive) |  | 
2 | COC(=O)CCCC(=O)NC1=C(Nc2ccc(OC)cc2)C(=O)c2ccccc2C1=O | 19.4 µM (inactive) | 17.8 µM (inactive) | 27.7 µM (inactive) | 20.7 µM (inactive) | 28.8 µM (inactive) | 22.8 µM (inactive) | 30.1 µM (inactive) | 30.4 µM (inactive) | 16.3 µM (inactive) | 20.4 µM (inactive) | 12.8 µM (inactive) | 37.5 µM (inactive) |  | 20.6 µM (inactive) | 43.2 µM (inactive) | 
3 | CCCCC1=C(C(=O)N2CCOCC2)C2(OCCO2)C1Cl (stereo not drawn) | 16.9 µM (inactive) | 28.8 µM (inactive) | 22.2 µM (inactive) | 66.7 µM (inactive) | 20.7 µM (inactive) | 30.1 µM (inactive) | 64 µM (inactive) | 28.1 µM (inactive) | 44.5 µM (inactive) | 25.5 µM (inactive) | 31.6 µM (inactive) | 27.1 µM (inactive) | 24.4 µM (inactive) |  | 29.2 µM (inactive) | 18.5 µM (inactive)
4 | C=C(C(=O)O)[C@@H]1C[C@@H]2O[C@H]1[C@@H](O)[C@@H](C)CCCC(C)=CCC[C@@]2(C)O | > 100 µM (inactive) and > 77.4 µM (inactive) | > 100 µM (inactive) | > 100 µM (inactive) | > 100 µM (inactive) | > 100 µM (inactive) | > 100 µM (inactive) | > 100 µM (inactive) | > 100 µM (inactive) | > 100 µM (inactive) | > 100 µM (inactive) | > 100 µM (inactive) and > 90.4 µM (inactive) |  |  | > 100 µM (inactive) |  | > 100 µM (inactive) and > 91.6 µM (inactive)
5 | CCOC(=O)c1c(N2CCOCC2)ncn(-c2cccc(Cl)c2)c1=O | > 100 µM (inactive) | > 100 µM (inactive) | > 100 µM (inactive) | 0.159 µM (active) | > 100 µM (inactive) | > 100 µM (inactive) | > 100 µM (inactive) | > 100 µM (inactive) | > 100 µM (inactive) | > 100 µM (inactive) | > 100 µM (inactive) | > 100 µM (inactive) | > 100 µM (inactive) | > 100 µM (inactive) | > 100 µM (inactive) | 
6 | Clc1ccc(C2=CC(c3ccccc3)N3C(=N[C@H]4CCCC[C@@H]43)N2)cc1 (stereo partly drawn) | 2.98 µM (inactive) | 5.61 µM (inactive) |  | 10.4 µM (inactive) | 2.07 µM (inactive) | 3.12 µM (inactive) | 9.08 µM (inactive) | 7.67 µM (inactive) | 8.41 µM (inactive) | 7.82 µM (inactive) | 5.82 µM (inactive) |  | 2.39 µM (inactive) | 2.08 µM (inactive) | 13.9 µM (inactive) | 1.71 µM (inactive)
7 | CN(C)c1ccc(C2CC(c3ccc4ccccc4c3O)=NN2c2ccc([N+](=O)[O-])cc2[N+](=O)[O-])cc1 (stereo not drawn) | 63 µM (inactive) | > 100 µM (inactive) | 50.7 µM (inactive) | 68.4 µM (inactive) | 24.4 µM (inactive) | 48.8 µM (inactive) | 22 µM (inactive) | 40.1 µM (inactive) | 64.9 µM (inactive) | 17 µM (inactive) | 14.3 µM (inactive) | 21 µM (inactive) | 39.4 µM (inactive) | 71 µM (inactive) | > 100 µM (inactive) | 
8 | C=C(C)C1CC/C(C)=C/CCC2(C)OC2CC/C(CO)=C\C1O (stereo not drawn) | 49.3 µM (inactive) | > 100 µM (inactive) | > 100 µM (inactive) | > 100 µM (inactive) | > 100 µM (inactive) | 15.7 µM (inactive) | > 100 µM (inactive) | 40.9 µM (inactive) | > 100 µM (inactive) | > 100 µM (inactive) | 80 µM (inactive) |  | > 100 µM (inactive) | > 100 µM (inactive) | > 100 µM (inactive) | 
9 | CC1(C)OC(=O)C(C#N)=C1C[n+]1ccccc1 | > 10 µM (inactive) | > 10 µM (inactive) | > 10 µM (inactive) | > 10 µM (inactive) | > 10 µM (inactive) | > 10 µM (inactive) | > 10 µM (inactive) | > 10 µM (inactive) | > 10 µM (inactive) | > 10 µM (inactive) |  | > 10 µM (inactive) | > 10 µM (inactive) | > 10 µM (inactive) | > 10 µM (inactive) | > 10 µM (inactive)
10 | O=P(O)(O)C(NCC(O)CN1CCOCC1)P(=O)(O)O (stereo not drawn) | > 100 µM (inactive) |  |  | > 100 µM (inactive) | > 100 µM (inactive) | 10.2 µM (inactive) | > 100 µM (inactive) | > 100 µM (inactive) | > 100 µM (inactive) | > 100 µM (inactive) | > 100 µM (inactive) | > 100 µM (inactive) | > 100 µM (inactive) | > 100 µM (inactive) | > 100 µM (inactive) | > 100 µM (inactive)
11 | CC(=O)OCC1OC(N2C(=O)CC(N)=Nc3ccccc32)C(OC(C)=O)C(OC(C)=O)C1OC(C)=O (stereo not drawn) | 38.6 µM (inactive) | 57.8 µM (inactive) | 58.2 µM (inactive) | 62.8 µM (inactive) | 45.2 µM (inactive) | > 100 µM (inactive) | > 100 µM (inactive) | 74 µM (inactive) | 63.4 µM (inactive) | 43.2 µM (inactive) | 34.6 µM (inactive) |  | 53.8 µM (inactive) | 75.7 µM (inactive) | > 100 µM (inactive) | 17 µM (inactive)
12 | O=C(Nc1ccc(Cl)cc1Cl)c1cc2nc3ccccc3c(=O)n2c2ccccc12 | > 10 µM (inactive) |  |  | > 10 µM (inactive) | > 10 µM (inactive) | > 10 µM (inactive) | > 10 µM (inactive) | > 10 µM (inactive) | > 10 µM (inactive) | > 10 µM (inactive) | > 10 µM (inactive) | > 10 µM (inactive) | > 10 µM (inactive) | > 10 µM (inactive) | > 10 µM (inactive) | > 10 µM (inactive)
13 | O=C(O)c1ccc(OCc2nc3cc(C(F)(F)F)ccc3nc2-c2ccccc2)cc1 | 80.4 µM (inactive) |  | 60.4 µM (inactive) | > 100 µM (inactive) | 30.1 µM (inactive) | 43.5 µM (inactive) | 56.4 µM (inactive) | 39.1 µM (inactive) | 60.1 µM (inactive) | 36.8 µM (inactive) | 37.6 µM (inactive) | 74.6 µM (inactive) | 32.1 µM (inactive) | 41.2 µM (inactive) | 5.52 µM (inactive) | 32.1 µM (inactive)
14 | COC(=O)C1CCC(=O)N1CN(C(C)=O)c1ccccc1 (stereo not drawn) | > 100 µM (inactive) | > 100 µM (inactive) | > 100 µM (inactive) | > 100 µM (inactive) | > 100 µM (inactive) | > 100 µM (inactive) | > 100 µM (inactive) | > 100 µM (inactive) | > 100 µM (inactive) | > 100 µM (inactive) | > 100 µM (inactive) | > 100 µM (inactive) | > 100 µM (inactive) |  | > 100 µM (inactive) | > 100 µM (inactive)
15 | Cc1n[nH]c(=O)n1C1CCCC1 | > 100 µM (inactive) | > 100 µM (inactive) | > 100 µM (inactive) | > 100 µM (inactive) | > 100 µM (inactive) | > 100 µM (inactive) | > 100 µM (inactive) | > 100 µM (inactive) | > 100 µM (inactive) | > 100 µM (inactive) |  | > 100 µM (inactive) | > 100 µM (inactive) | > 100 µM (inactive) | > 100 µM (inactive) | > 100 µM (inactive)
16 | O=c1cc(C(F)(F)F)c2cc3c(cc2o1)NCCC3 | > 100 µM (inactive) | 70.6 µM (inactive) | > 100 µM (inactive) | > 100 µM (inactive) | > 100 µM (inactive) | 18.5 µM (inactive) | > 100 µM (inactive) | 35 µM (inactive) | > 100 µM (inactive) | > 100 µM (inactive) |  | 49.5 µM (inactive) | > 100 µM (inactive) | > 100 µM (inactive) | 86.9 µM (inactive) | 78.3 µM (inactive)
17 | CC(C)(C)OC(=O)Nc1nnc(S(N)(=O)=O)s1 | > 100 µM (inactive) | > 100 µM (inactive) | > 100 µM (inactive) | > 100 µM (inactive) | > 100 µM (inactive) | > 100 µM (inactive) | > 100 µM (inactive) | > 100 µM (inactive) | > 100 µM (inactive) | > 100 µM (inactive) | > 100 µM (inactive) | > 100 µM (inactive) | > 100 µM (inactive) | > 100 µM (inactive) | > 100 µM (inactive) | > 100 µM (inactive)
18 | O=C1c2ccccc2-c2oc(=O)c3ccccc3c21 | > 100 µM (inactive) | > 100 µM (inactive) | > 100 µM (inactive) | > 100 µM (inactive) | > 100 µM (inactive) | > 100 µM (inactive) | > 100 µM (inactive) | > 100 µM (inactive) | > 100 µM (inactive) | > 100 µM (inactive) | > 100 µM (inactive) | 0.962 µM (active) | > 100 µM (inactive) |  | > 100 µM (inactive) | > 100 µM (inactive)
